27 molecules from patent US5128331A, “Method for lowering plasma lipid levels or blood pressure” (priority 1988, dated 1992) can be followed below.

In this test the test system is mice of the OF1 strain. Description: Hypolipidemic activity: plasma cholesterol and plasma triglycerides in mice fed compound in chow. It counts as in vivo. The following applies: for change in vivo at 180 mg/kg: Mus musculus, feed or water, 240 h; for hypocholesterolemic activity (in words) / hypotriglyceridemia (in words) / decreased plasma triglycerides by / hypocholesterolemic potency (plasma cholesterol change): 0.1% in chow. As to the method: With the goal of finding new drugs which might be hypolipidemic, the new diphosphonates described in this patent application were administered orally to mice. This rodent species has plasma lipid level relatively close to man (generally greater than 150 mg/dl). For example, in mice receiving a normal diet the plasma cholesterol and triglyceride levels are in the range of 100 mg/dl, whereas for rat the comparative values are close to 50 mg/dl.
In every screening experiment, 30 mice of the OF1 strain weighing 25 to 35 g were divided into 5 groups of 6 animals each. Four groups received the compounds to be tested, or the reference drugs, the fifth group served as control. Compounds were dissolved in diethyl ether, and solution was added to the pelleted food and the ether was evaporated.
All compounds were tested at the final concentration of 0.1% in animal chow, equivalent to a daily intake of about 180 mg/kg. This diet was fed for 10 days, then after an overnight fasting the animals were sacrified by decapitation under ether anesthesia. Blood samples were collected in EDTA containing tubes.
Plasma cholesterol and plasma triglycerides were measured by enzymatic methods (Ames kit No. 6376 and No. 6630).

Where [1] appears, read: mice, 0.1% in animal chow (about 180 mg/kg daily), 10 days, Table 3, given as change from control, read-out: Cholesterol (% control).
Setting [2] is: mice, 0.1% in animal chow (about 180 mg/kg daily), 10 days, Table 3, given as change from control, read-out: Triglycerides (% control).
The mark [3] stands for this setting: read-out: Cholesterol (% control).
Where [4] appears, read: read-out: Triglycerides (% control).

Structures are written as SMILES. Like-named read-outs stand apart in the source and are kept apart here.

As to `CCOC(=O)C(C)(C)Oc1ccc(Cl)cc1` [Clofibrate, reference compound], the change in vivo at 180 mg/kg runs as follows: under setting [1], 4%; under setting [2], -5%. For the same molecule, the “hypocholesterolemic activity (in words)” value (mice, 10 days) is given as “less hypocholesterolemic than many of the diphosphonates tested”.

For `CCOP(=O)(OCC)C(Cc1cc(C)c(O)c(C(C)(C)C)c1)P(=O)(OCC)OCC` [Compound 1, Tetraethyl 2-(3-tertiarybutyl-4-hydroxy-5-methylphenyl)-ethylidene-1,1-diphosphonate], the change in vivo at 180 mg/kg runs as follows: under setting [3], -2%; under setting [4], -28%.

Take `CCOP(=O)(OCC)C(Cc1cc(C(C)C)c(O)c(C(C)C)c1)P(=O)(OCC)OCC` [Compound 2]: the change in vivo at 180 mg/kg by setting is: under setting [3], 6%; under setting [4], -17%.

As to `CCOP(=O)(OCC)C(Sc1cc(C(C)(C)C)c(O)c(C(C)(C)C)c1)P(=O)(OCC)OCC` [Compound 5, Tetraethyl 3,5-ditertiary-4-hydroxyphenylthio-methylenediphosphonate], the change in vivo at 180 mg/kg under setting [3] was -22% and the change in vivo at 180 mg/kg under setting [4] is -24%. Moreover, the “hypocholesterolemic activity (in words)” value (mice, 10 days) is on record as “hypocholesterolemic”. For the same molecule, for the setting “mice, 10 days”, the “hypotriglyceridemia (in words)” value is “significant hypotriglyceridemia”.

Consider `COP(=O)(OC)C(Cc1cc(C(C)(C)C)c(O)c(C(C)(C)C)c1)P(=O)(OC)OC` [Compound 10, Tetramethyl 2-(3,5-ditertiarybutyl-4-hydroxyphenyl)-ethylidene-1,1-diphosphonate], for which the change in vivo at 180 mg/kg by setting is: under setting [3], -5%; under setting [4], -19%.

`CCOP(=O)(OCC)C(Cc1cc2c(cc1Cl)OCO2)P(=O)(OCC)OCC` [Compound 13, Tetraethyl 2-(3,4-methylenedioxy-6-chlorophenyl)-ethylidene-1,1-diphosphonate]: the change in vivo at 180 mg/kg is -5% under setting [3] and 38% under setting [4].

Take `CCOP(=O)(OCC)C(Cc1cc(C(C)(C)C)c(O)c(C(C)(C)C)c1)P(=O)(N(C)C)N(C)C` (stereo not shown) [Compound 19, Diethyl 1-bis(dimethylamino)phosphinyl-2-(3,5-ditertiarybutyl-4-hydroxyphenyl)ethylphosphonate]: the change in vivo at 180 mg/kg runs as follows: under setting [3], -6%; under setting [4], -44%. For the same molecule, the “decreased plasma triglycerides by” value (mice, 10 days) is on record as “more than 44%”.

For `CCOP(=O)(OCC)C(CCCCCCSc1cc(C(C)(C)C)c(O)c(C(C)(C)C)c1)P(=O)(OCC)OCC` [Compound 20, Tetraethyl 7-(3,5-ditertiarybutyl-4-hydroxyphenylthio)-heptylidene-1,1-diphosphonate], the change in vivo at 180 mg/kg stood at 5% under setting [3] and 13% under setting [4].

As for `CCOP(=O)(OCC)C(CC)(Cc1cc(C(C)(C)C)c(O)c(C(C)(C)C)c1)P(=O)(OCC)OCC` [Compound 21, Tetraethyl 1-(3,5-ditertiarybutyl-4-hydroxyphenyl)-butylidene-2,2-diphosphonate], the change in vivo at 180 mg/kg under setting [3] is -16%. The change in vivo at 180 mg/kg under setting [4] was -28%. For the same molecule, under “mice, 10 days”, the “hypocholesterolemic activity (in words)” value was “hypocholesterolemic” and the “hypotriglyceridemia (in words)” value was “significant hypotriglyceridemia”.

Consider `CC(C)OP(=O)(OC(C)C)C(Sc1cc(C(C)(C)C)c(O)c(C(C)(C)C)c1)P(=O)(OC(C)C)OC(C)C` [Compound 22], for which, under setting [3], the change in vivo at 180 mg/kg was -21%. Under setting [4], the change in vivo at 180 mg/kg was -37%. Besides, under “mice, 10 days”, the “hypocholesterolemic activity (in words)” value was “hypocholesterolemic” and the “hypotriglyceridemia (in words)” value is listed as “significant hypotriglyceridemia”.

For `CCCOP(=O)(OCCC)C(Cc1cc(C(C)(C)C)c(O)c(C(C)(C)C)c1)P(=O)(OCCC)OCCC` [Compound 23], the change in vivo at 180 mg/kg under setting [3] is -15%. In addition, the change in vivo at 180 mg/kg under setting [4] was -33%. Under “mice, 10 days”, the “hypocholesterolemic activity (in words)” value is “hypocholesterolemic” and the “hypotriglyceridemia (in words)” value is listed as “significant hypotriglyceridemia”.

In the case of `CC(C)(C)c1cc(CC(P2(=O)OCCCO2)P2(=O)OCCCO2)cc(C(C)(C)C)c1O` [Compound 24], the change in vivo at 180 mg/kg under setting [1] was -20%. Further, the change in vivo at 180 mg/kg under setting [2] was -71%. For the same molecule, for the setting “mice, 10 days”, the “decreased plasma triglycerides by” value is reported as “more than 44%”, the “hypocholesterolemic activity (in words)” value was “hypocholesterolemic” and the “hypotriglyceridemia (in words)” value is “significant hypotriglyceridemia”.

In the case of `CCOP(=O)(OCC)C(=Cc1cc(C)c(O)c(C(C)(C)C)c1)P(=O)(OCC)OCC` [Compound 30, Tetraethyl 2-(3-tertiarybutyl-4-hydroxy-5-methylphenyl)-ethenylidene-1,1-diphosphonate], the change in vivo at 180 mg/kg is, setting by setting: under setting [3], 2%; under setting [4], -45%. Moreover, the “decreased plasma triglycerides by” value (mice, 10 days) was “more than 44%”. For the setting “mice, 10 days”, the “hypotriglyceridemia (in words)” value is given as “significant hypotriglyceridemia”.

For the molecule `CCOP(=O)(OCC)C(=Cc1cc(C(C)C)c(O)c(C(C)C)c1)P(=O)(OCC)OCC` [Compound 31], the change in vivo at 180 mg/kg under setting [3] is 4% and the change in vivo at 180 mg/kg under setting [4] is -11%. Further, where the note is “mice, 10 days”, the “hypotriglyceridemia (in words)” value is “significant hypotriglyceridemia”.

Regarding `CCOP(=O)(OCC)C(=Cc1cc(C(C)CC)c(O)c(C(C)CC)c1)P(=O)(OCC)OCC` (stereo not shown) [Compound 32], the change in vivo at 180 mg/kg by setting is: under setting [3], 8%; under setting [4], 9%.

Consider `CC(C)OP(=O)(OC(C)C)C(=Cc1cc(C(C)(C)C)c(O)c(C(C)(C)C)c1)P(=O)(OC(C)C)OC(C)C` [Compound 34], for which the change in vivo at 180 mg/kg under setting [1] was -41%. The change in vivo at 180 mg/kg under setting [2] is 11%. Where the note is “mice, 10 days”, the “hypocholesterolemic activity (in words)” value is recorded as “hypocholesterolemic” and the “hypocholesterolemic potency (plasma cholesterol change)” value was -41%.

Take `CCCCOP(=O)(OCCCC)C(=Cc1cc(C(C)(C)C)c(O)c(C(C)(C)C)c1)P(=O)(OCCCC)OCCCC` [Compound 35]: the change in vivo at 180 mg/kg is, setting by setting: under setting [1], 0%; under setting [2], 7%.

Turning to `CCOP(=O)(OCC)C(=Cc1cc(OC)c(O)c(OC)c1)P(=O)(OCC)OCC` [Compound 37], the change in vivo at 180 mg/kg under setting [3] is -16%. In addition, the change in vivo at 180 mg/kg under setting [4] is -70%. Also, under “mice, 10 days”, the “decreased plasma triglycerides by” value is recorded as “more than 44%”, the “hypocholesterolemic activity (in words)” value was “hypocholesterolemic” and the “hypotriglyceridemia (in words)” value is “significant hypotriglyceridemia”.

Consider `CCOP(=O)(OCC)C(=Cc1ccc2c(c1)OCO2)P(=O)(OCC)OCC` [Compound 38, Tetraethyl 2(3,4-methylenedioxyphenyl)-ethenylidene-1,1-diphosphonate], for which the change in vivo at 180 mg/kg is -5% under setting [3] and -6% under setting [4].

`CCOP(=O)(OCC)C(=Cc1ccc2c(c1)OCCO2)P(=O)(OCC)OCC` [Compound 39]: the change in vivo at 180 mg/kg turned out to be 4% under setting [3] and 17% under setting [4].

As to `CCOP(=O)(OCC)C(=Cc1cc(C(C)(C)C)c(OC(C)=O)c(C(C)(C)C)c1)P(=O)(OCC)OCC` [Compound 41, Tetraethyl 2-(3,5-ditertiarybutyl-4-acetoxyphenyl)-ethenylidene-1,1-diphosphonate], the change in vivo at 180 mg/kg under setting [3] is -3% and the change in vivo at 180 mg/kg under setting [4] worked out at 6%.

Take `CCCCOP(=O)(OCCCC)C(=Cc1cc(C(C)(C)C)c(O)c(C(C)(C)C)c1)P(=O)(OCC)OCC` [Compound 42, Dibutyl diethyl 2-(3,5-ditertiarybutyl-4-hydroxyphenyl)-ethenylidene-1,1-diphosphonate]: the change in vivo at 180 mg/kg reads like this: under setting [3], 12%; under setting [4], 1%.

With `CCOP(=O)(OCC)C(=CC=Cc1cc(C(C)(C)C)c(O)c(C(C)(C)C)c1)P(=O)(OCC)OCC` [Compound 43, Tetraethyl 4-(3,5-ditertiarybutyl-4-hydroxyphenyl)-1,3-butadienylidene-1,1-diphosphonate], the change in vivo at 180 mg/kg is -5% under setting [3] and -14% under setting [4].

With `CCOP(=O)(OCC)C(=Cc1cc(C(C)(C)C)cc(C(C)(C)C)c1O)P(=O)(OCC)OCC` [Compound 46], the change in vivo at 180 mg/kg under setting [3] was 1% and the change in vivo at 180 mg/kg under setting [4] was -12%.

For `COP(=O)(OC)C(=Cc1cc(C(C)(C)C)c(O)c(C(C)(C)C)c1)P(=O)(OC)OC` [Compound 47], the change in vivo at 180 mg/kg under setting [3] was -31%. Also, under setting [4], the change in vivo at 180 mg/kg is -45%. Besides, under “mice, 10 days”, the “decreased plasma triglycerides by” value is reported as “more than 44%”, the “hypocholesterolemic activity (in words)” value is recorded as “hypocholesterolemic” and the “hypotriglyceridemia (in words)” value was “significant hypotriglyceridemia”.

Consider `CCCOP(=O)(OCCC)C(=Cc1cc(C(C)(C)C)c(O)c(C(C)(C)C)c1)P(=O)(OCCC)OCCC` [Compound 48], for which the change in vivo at 180 mg/kg under setting [1] was -21%. Besides, the change in vivo at 180 mg/kg under setting [2] was -36%. Further, where the note is “mice, 10 days”, the “hypocholesterolemic activity (in words)” value is recorded as “hypocholesterolemic” and the “hypotriglyceridemia (in words)” value was “significant hypotriglyceridemia”.

Regarding `CC(C)OC(=O)C(C)(C)Oc1ccc(C(=O)c2ccc(Cl)cc2)cc1` [Fenofibrate, reference compound], the change in vivo at 180 mg/kg under setting [1] was -15%. Also, the change in vivo at 180 mg/kg under setting [2] was -2%. For the same molecule, for the setting “mice, 10 days”, the “hypocholesterolemic activity (in words)” value is reported as “less hypocholesterolemic than many of the diphosphonates tested” and the “hypocholesterolemic potency (plasma cholesterol change)” value was -15%.
